The values that follow come from US20220274979A1 (Bayer Pharma Aktiengesellschaft, priority 2018, published 2022).

Where two headings read alike, the source gives them in different places.

The target in test [1] is T1, hSOS1 (hSOS1-mediated loading of hK-RasG12C-GDP) (Homo sapiens, UniProt Q07889).
T1 construct: hSOS1 (amino acid 564-1049); made in house; host or cells: E. coli BL21 (DE3)
T1 sequence (Q07889 with tags, fused parts or gaps): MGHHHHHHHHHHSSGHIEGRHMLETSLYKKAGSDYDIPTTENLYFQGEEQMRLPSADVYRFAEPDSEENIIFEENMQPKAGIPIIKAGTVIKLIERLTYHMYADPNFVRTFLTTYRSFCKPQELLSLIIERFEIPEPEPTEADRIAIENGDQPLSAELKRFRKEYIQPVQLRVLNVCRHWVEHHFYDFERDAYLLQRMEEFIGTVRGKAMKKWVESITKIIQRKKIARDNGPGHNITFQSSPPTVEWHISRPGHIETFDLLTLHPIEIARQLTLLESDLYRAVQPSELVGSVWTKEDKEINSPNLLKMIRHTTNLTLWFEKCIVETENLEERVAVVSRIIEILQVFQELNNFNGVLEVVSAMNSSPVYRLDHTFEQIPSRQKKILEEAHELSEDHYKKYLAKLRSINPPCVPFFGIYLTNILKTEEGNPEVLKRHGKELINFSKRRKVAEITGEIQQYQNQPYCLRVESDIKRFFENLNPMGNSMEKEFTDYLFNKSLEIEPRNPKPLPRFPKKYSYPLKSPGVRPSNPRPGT
Description: Biochemical Assay 3: hK-RasG12C activation assay by hSOS1 (loading with fluorescent GTP analog, HTRF). Conditions: no GTP. From the text:
Biochemical Assay 3: hK-RasG12C Activation Assay by hSOS1
K-Ras is a small GTPase that can bind GDP and GTP. The guanine nucleotide exchange factor SOS1 catalyzes the activation of K-Ras by promoting the exchange of GDP to GTP. SOS1 binds to K-Ras-GDP thereby opening the GDP-binding pocket to facilitate GDP release. Rebinding of excess nucleotide leads to dissociation of the K-Ras-SOS1 intermediate complex leaving K-Ras loaded with the nucleotide.
This assay quantifies human SOS1-(hSOS1-)mediated loading of human K-Ras^G12C-GDP (hK-RasG12C-GDP) with a fluorescent GTP-analog. Detection of successful loading is achieved by measuring homogenous time-resolved fluorescence resonance energy transfer (HTRF) from antiGST-Terbium (FRET donor) bound to GST-hK-RasG12C (see below) to the loaded fluorescent GTP analog (FRET-acceptor).
The fluorescent GTP-analog EDA-GTP-Dy647P1 (2′/3′-O-(2-Aminoethyl-carbamoyl)-guanosine-5′-triphosphate labelled with Dy647P1 (Dyomics GmbH, Germany)) was synthesized by Jena Biosciences GmbH (Germany) and supplied as a 1 mM aqueous solution.
(§1) The assay buffer contained 10 mM HEPES pH 7.4 (Applichem), 150 mM NaCl (Sigma), 5 mM MgCl2 (Sigma), 1 mM DTT (Thermofisher), 0.05% BSA Fraction V, pH 7.0, (ICN Biomedicals), 0.0025% (v/v) Igepal (Sigma).
Concentrations of protein batches used were optimized to be within the linear range of the HTRF signal. A hRas working solution was prepared in assay buffer containing typically 100 nM GST-hK-RasG12C and 2 nM antiGST-Tb (Cisbio, France). A hSOS1 working solution was prepared in assay buffer containing typically 20 nM hSOS1 and 200 nM EDA-GTP-Dy647P1. An inhibitor control solution was prepared in assay buffer containing 200 nM EDA-GTP-Dy647P1 without hSOS1.
(§2) Fifty nl of a 100-fold concentrated solution of the test compound in DMSO were transferred into a black microtiter test plate (384 or 1536, Greiner Bio-One, Germany) For this, either a Hummingbird liquid handler (Digilab, Mass., USA) or an Echo acoustic system (Labcyte, Calif., USA) was used.
All steps of the assay were performed at 20° C. A volume of 2.5 μl of the hRas working solution was added to all wells of the test plate using a Multidrop dispenser (Thermo Labsystems). After 10 min. preincubation, 2.5 μl of the hSOS1 working solution were added to all wells except for those wells at the side of the test plate that were subsequently filled with 2.5 μl of the inhibitor control solution. After […] incubation the fluorescence was measured with a Pherastar (BMG, Germany) using the HTRF module (excitation 337 nm, emission 1: 620 nm, emission 2:665 nm).
(§3) IC50 values were calculated by 4-Parameter fitting using a commercial software package (Genedata Screener, Switzerland).

Test [2] has as its target T2, hSOS1 (hSOS1-mediated nucleotide exchange of hK-RasG12C) (Homo sapiens, UniProt Q07889).
T2 construct: hSOS1 (amino acid 564-1049); made in house; host or cells: E. coli BL21 (DE3)
T2 sequence (Q07889 with tags, fused parts or gaps): T1 sequence (Q07889 with tags, fused parts or gaps)
The test can be described thus: Biochemical Assay 2: hK-RasG12C activation assay by hSOS1 at high GTP concentration (HTRF nucleotide exchange). Conditions: high GTP (50 μM GTP).
Text: Biochemical Assay 2: hK-RasG12C Activation Assay by hSOS1 at High GTP Concentration
This assay quantifies human SOS1-mediated nucleotide exchange of human K-Ras^G12C (hK-RasG12C) preloaded with a fluorescent […] and in presence of an excess of free GTP. Loaded hK-RasG12C generates a high HTRF-signal by energy transfer from antiGST-Terbium (FRET donor) bound to hK-Ras to the loaded fluorescent GDP analog (FRET-acceptor). hSOS1 activity exchanges the fluorescent GDP for non-fluorescent GTP and therefore leads to a reduction of the HTRF signal.
The fluorescent GDP-analog EDA-GDP-Dy647P1 (2′/3′-O-(2-Aminoethyl-carbamoyl)-guanosine-5′-diphosphate labelled with Dy647P1 (Dyomics GmbH, Germany)) was synthesized by Jena Biosciences GmbH (Germany) and supplied as a 1 mM aqueous solution.
Concentrations of protein batches used were optimized to be within the linear range of the HTRF signal.
Addition of 20 μl 1 M MgCl2 (Sigma) to final 40 mM and store on ice. Purification into buffer (10 mM HEPES pH 7.4 (Applichem), 150 mM NaCl (Sigma), 5 mM MgCl2 (Sigma)) by use of a PD-Minitrap desalting column (GE Healthcare). Concentration of 1 ml purified hK-Ras-GDP-Dy647 is approx. 4-5 μM.
as §1
A Ras working solution was prepared in assay buffer containing typically 80 nM loaded GST-hK-RasG12C-EDA-GDP-Dy647P1 and 2 nM antiGST-Tb (Cisbio, France).
Alternatively, the inhibitor control solution was prepared by supplementing the hSOS1 working solution with 20 μM of 6,7-dimethoxy-N-[(1R)-1-(1-naphthyl)ethyl]quinazolin-4-amine which was used to calibrate the assay.
as §2
All steps of the assay were performed at 20° C. A volume of 2.5 μl of the Ras working solution was added to all wells of the test plate using a Multidrop dispenser (Thermo Labsystems). After 2 min. preincubation, 2.5 μl of the hSOS1 working solution were added to all wells except for those wells at the side of the test plate that were subsequently filled with 2.5 μl of the inhibitor control solution. After 20 min. incubation the fluorescence was measured with a Pherastar (BMG, Germany) using the HTRF module (excitation 337 nm, emission 1:620 nm, emission 2:665 nm).
as §3
A general note: TR-FRET usually uses a lanthanide donor and a delayed reading to cut background.

Test [3] deals with T3, hK-RasG12C - hSOS1 interaction (Homo sapiens, UniProt Q07889).
T3 construct: hSOS1 (amino acid 564-1049); made in house; host or cells: E. coli BL21 (DE3)
T3 sequence (Q07889 with tags, fused parts or gaps): T1 sequence (Q07889 with tags, fused parts or gaps)
The test can be described thus: Biochemical Assay 1: hK-RasG12C interaction assay with hSOS1 (HTRF). In kind it is binding. As to the method: Biochemical Assay 1: hK-RasG12C Interaction Assay with hSOS1
This assay quantifies the equilibrium interaction of human SOS1 (hSOS1) with human K-Ras^G12C (hK-RasG12C). Detection of the interaction is achieved by measuring homogenous time-resolved fluorescence resonance energy transfer (HTRF) from antiGST-Europium (FRET donor) bound to GST-K-RasG12C to anti-6His-XL665 bound to His-tagged hSOS1 (FRET-acceptor).
The assay buffer contained 5 mM HEPES pH 7.4 (Applichem), 150 mM NaCl (Sigma), 10 mM EDTA (Promega), 1 mM DTT (Thermofisher), 0.05% BSA Fraction V, pH 7.0, (ICN Biomedicals), 0.0025% (v/v) Igepal (Sigma) and 100 mM KF (FLUKA).
Concentrations of protein batches used were optimized to be within the linear range of the HTRF signal. A Ras working solution was prepared in assay buffer containing typically 10 nM GST-hK-RasG12C and 2 nM antiGST-Eu(K) (Cisbio, France). A SOS1 working solution was prepared in assay buffer containing typically 20 nM His-hSOS1 and 10 nM anti-6His-XL665 (Cisbio, France). An inhibitor control solution was prepared in assay buffer containing 10 nM anti-6His-XL665 without hSOS1.
as §2
All steps of the assay were performed at 20° C. A volume of 2.5 μl of the Ras working solution was added to all wells of the test plate using a Multidrop dispenser (Thermo Labsystems). After […] preincubation, 2.5 μl of the SOS1 working solution were added to all wells except for those wells at the side of the test plate that were subsequently filled with 2.5 μl of the inhibitor control solution. After […] incubation the fluorescence was measured with a Pherastar (BMG, Germany) using the HTRF module (excitation 337 nm, emission 1:620 nm, emission 2:665 nm).
as §3

Turning to `Cc1nc(NC(C)c2ccc(-c3ccccc3CN(C)C)s2)c2cc(N3CCNC(=O)C3)ncc2n1` (centres unmarked) [Example 50, 4-(4-{[1-(5-{2-[(dimethylamino)methyl]phenyl}thiophen-2-yl)ethyl]amino}-2-methylpyrido[3,4-d]pyrimidin-6-yl)piperazin-2-one], the 50% inhibitory concentration (IC50) (in general, the concentration needed to halve the response being measured) amounted to 54.8 nM in test [1] and 48.8 nM in test [2].
In test [2], `CCCOc1cc2c(NC(C)c3ccc(-c4ccccc4CN(C)C)s3)nc(C)nc2cn1` (centres unmarked) [Example 65, N-[1-(5-{2-[(dimethylamino)methyl]phenyl}thiophen-2-yl)ethyl]-2-methyl-6-propoxypyrido[3,4-d]pyrimidin-4-amine] registered a half-inhibitory concentration (IC50) of 32.8 nM. In other words, the double-digit nanomolar range.
As to `Cc1nc(NC(C)c2ccc(-c3ccccc3CN(C)C)s2)c2cc(OCCN(C)C)ncc2n1` (centres unmarked) [Example 66, 6-[2-(dimethylamino)ethoxy]-N-[1-(5-{2-[(dimethylamino)methyl]phenyl}thiophen-2-yl)ethyl]-2-methylpyrido[3,4-d]pyrimidin-4-amine], the IC50 was 30.4 nM in test [3] (values expressed as IC50) and 22.7 nM in test [2].
With `CC(=O)N(c1cccc(C(=O)NC2CN(c3cc4c(NC(C)c5ccc(-c6ccccc6CN(C)C)s5)nc(C)nc4cn3)C2)c1)[C@@H]1CCN(C(=O)OC(C)(C)C)C1` (stereo partly drawn) [Example 97, tert-butyl (3R)-3-[acetyl(3-{[1-(4-{[1-(5-{2-[(dimethylamino)methyl]phenyl}-2-thienyl)-ethyl]amino}-2-methylpyrido[3,4-d]pyrimidin-6-yl)azetidin-3-yl]carbamoyl}-phenyl)amino]pyrrolidine-1-carboxylate], the IC50 in test [1] was 554 nM; in test [3] (values expressed as IC50), 293 nM; in test [2], 298 nM.
Take `CC(=O)N(c1cccc(C(=O)NC2CN(c3cc4c(NC(C)c5ccc(-c6ccccc6CN(C)C)s5)nc(C)nc4cn3)C2)c1)C1CCN(C(=O)OC(C)(C)C)CC1` (centres unmarked) [Example 98, tert-butyl 4-[acetyl(3-{[1-(4-{[1-(5-{2-[(dimethylamino)methyl]phenyl}thiophen-2-yl)ethyl]amino}-2-methylpyrido[3,4-d]pyrimidin-6-yl)azetidin-3-yl]carbamoyl}-phenyl)amino]piperidine-1-carboxylate]: the half-inhibitory concentration (IC50) was determined as 620 nM in test [1], 271 nM in test [3] and 428 nM in test [2].
As to `Cc1nc(NC(C)c2ccc(-c3ccccc3CN(C)C)s2)c2cc(N3CC(NCc4ccccc4)C3)ncc2n1` (centres unmarked) [Example 99, 6-[3-(benzylamino)azetidin-1-yl]-N-[1-(5-{2-[(dimethylamino)methyl]phenyl}thiophen-2-yl)ethyl]-2-methylpyrido[3,4-d]pyrimidin-4-amine], the IC50 in test [1] was determined as 82.5 nM; in test [3] (values expressed as IC50) it was 53.2 nM; in test [2], 58.8 nM.
Consider `Cc1nc(NC(C)c2ccc(-c3ccccc3CN(C)C)s2)c2cc(N3CC(NC(=O)N4CCS(=O)(=O)CC4)C3)ncc2n1` (centres unmarked) [Example 100, N-[1-(4-{[1-(5-{2-[(dimethylamino)methyl]phenyl}thiophen-2-yl)ethyl]amino}-2-methylpyrido[3,4-d]pyrimidin-6-yl)azetidin-3-yl]thiomorpholine-4-carboxamide 1,1-dioxide], for which the IC50 in test [1] turned out to be 156 nM; in test [3] (values expressed as IC50) it was 85.8 nM; in test [2], 103 nM.
